According to US12559506B2, “Indazole based compounds and associated methods of use” (Arvinas Operations, Inc., priority 2021, dated 2026):
Where two headings read alike, the source gives them in different places.

Biological target: T1, LRRK2 (endogenous, HiBit tagged) (Homo sapiens, UniProt Q5S007)
T1 construct: endogenous in cells; host or cells: HEK293 cells with HiBit knock-in at the endogenous LRRK2 locus, stably expressing firefly luciferase
Experiment: Endogenous LRRK2 degradation assay, endogenous gene C-terminally HiBit-tagged in HEK293 cells (Nano-Glo Dual Luciferase)
Type: cell-based
Excerpt: Exemplary Assay for Testing LRRK2 Degradation Driven by Exemplary Hetero-Bifunctional Compounds Designed to Target LRRK2
The assay measures the degradation of LRRK2 in cells where the C-terminus (3′) of the endogenous gene has been tagged with a HiBit sequence in HEK293 cells. The cells also express firefly luciferase, expressed from a Cytomegalovirus promoter and introduced into the HiBit tagged cells and stably expressed. The Nano-Glo® Dual Luciferase Reporter Assay System (Promega™, Madison, WI) was utilized.
Day 1—Preparation of Compound and Assay Plates. Two sets of plates were prepared: a triplicate set for the HiBit assay in white 384-well plates and a triplicate set of plate in black 384-well plates for the Alamar Blue cell viability assay. Briefly, the growth media (DMEM+Glutamax-10% fetal bovine serum-1% Penicillin-Streptomicin) from two T128 flasks was aspirated from the flasks. Cells were washed with Dulbecco's Phosphate Buffered Saline (dPBS) and aspirated. Trypsin (3 mL per flask) was added and the flasks were incubated for 2-3 minutes.
Ten mL of OptiMEM-10% fetal bovine-1% penicillin-streptomycin (hereinafter, “OptiMEM media”) was added to the flask and the cells and transferred to a 50 mL conical tube. A cell count (25 ul of cell into Effendorf vial+25 ul of Trypan Blue Stain) was performed and the cell density adjusted to 15,000 cell/45 μl/well (3.33×10^5/mL) in OptiMEM media.
Fourty-five microliters of the cell suspension (15,000 cells) was aliquoted to each well of the white 384-well plate. The plates incubated at room temperature for 10 minutes before being placed in the 37° C.+5% CO2 incubator overnight
Day 2—Compound Treatment. Exemplary compounds were prepared at a 1 mM starting concentration and 1:3 serial dilution for 11 points CRC prepared and stored in the freezer. The Master Compound Plate was thawed overnight at room temperature. DMSO (20 μL) was added into column 24 of the Master Compound Plate for negative control and 20 μL of 300 μM of Compound 4 in column 23 as positive control.
Intermediate Compound Plate with 4% DMSO in OptiMEM Media. DMSO was added to warm OptiMEM media to achieve a 4% DMSO solution (approximately 50 mL/plate). One-hundred microliters of the OptiMEM-4% DMSO was aliquoted to each well of 384-Well Deep Well Microplates.
The Master Compound Plate and the Intermediate Compound Plate were spun down.
One microliter of compound from the Master Compound Plate was transferred into the Intermediate plate (a 1:100 dilution). The diluted mixture was mixed and 5 μL transferred into the assay plate (a 1:10 dilution) for the final starting concentration of 1 μM. The Treated Assay plates were incubated for 24 hours at 37° C.+5% CO2. The Master Compound Plate was sealed and store at room temperature for a second run that was performed within a week.
Day 3—HiBit Assay. Five microliters of Alamar Blue was added to each well of the black 384-well plates. The plates were incubated for 2 hours in the incubator (37° C.+5% CO2) and at room temperature for one hour. Fluorescence of each plate was read on a plated reader for the Alamar Blue viability assay.
One set of white assay plates was warmed to room temperature (45 minute).
The One Glo luciferase mixture was prepared. The media from white 384-well assay plates was aspirated. Twenty-five μL of the One Glo luciferase mixture was added to each well of the assay plates. The plates were incubated on the bench (room temperature) for 45 minutes, including 10 minutes of shaking at 700 rpm. The luminescence of each plate was read on a plate reader.
1:100 DLR substrate and 1:100 LgBiT Protein dilution were added to the Promega Stop and Glo buffer and mixed just before addition to assay plates. Twenty-five microliters of Stop and Glo mixture was added to each well. Assay plates incubated for at least 45 minutes, including 10 minutes of shaking at 700 rpm. The luminescence of each plate was read on a plate reader.
Analysis of LRRK2 HiBit Screening assays. […]

[1] = endogenous HiBit-tagged LRRK2 in HEK293 cells, 24 hours treatment, read-out: Endogenous WT DC50
[2] = endogenous HiBit-tagged LRRK2 in HEK293 cells, 24 hours treatment, read-out: Endogenous WT Dmax
[3] = endogenous HiBit-tagged LRRK2 in HEK293 cells, 24 hours treatment, read-out: **Endogenous WT Dmax (%)
[4] = endogenous HiBit-tagged LRRK2 in HEK293 cells, 24 hours treatment, read-out: *Endogenous WT DC50
[5] = endogenous HiBit-tagged LRRK2, HEK293 cells, 24 hours, read-out: **Endogenous WT Dmax (%)
[6] = endogenous HiBit-tagged LRRK2, HEK293 cells, 24 hours, read-out: *Endogenous WT DC50

T1 sequence (Q5S007 whole entry): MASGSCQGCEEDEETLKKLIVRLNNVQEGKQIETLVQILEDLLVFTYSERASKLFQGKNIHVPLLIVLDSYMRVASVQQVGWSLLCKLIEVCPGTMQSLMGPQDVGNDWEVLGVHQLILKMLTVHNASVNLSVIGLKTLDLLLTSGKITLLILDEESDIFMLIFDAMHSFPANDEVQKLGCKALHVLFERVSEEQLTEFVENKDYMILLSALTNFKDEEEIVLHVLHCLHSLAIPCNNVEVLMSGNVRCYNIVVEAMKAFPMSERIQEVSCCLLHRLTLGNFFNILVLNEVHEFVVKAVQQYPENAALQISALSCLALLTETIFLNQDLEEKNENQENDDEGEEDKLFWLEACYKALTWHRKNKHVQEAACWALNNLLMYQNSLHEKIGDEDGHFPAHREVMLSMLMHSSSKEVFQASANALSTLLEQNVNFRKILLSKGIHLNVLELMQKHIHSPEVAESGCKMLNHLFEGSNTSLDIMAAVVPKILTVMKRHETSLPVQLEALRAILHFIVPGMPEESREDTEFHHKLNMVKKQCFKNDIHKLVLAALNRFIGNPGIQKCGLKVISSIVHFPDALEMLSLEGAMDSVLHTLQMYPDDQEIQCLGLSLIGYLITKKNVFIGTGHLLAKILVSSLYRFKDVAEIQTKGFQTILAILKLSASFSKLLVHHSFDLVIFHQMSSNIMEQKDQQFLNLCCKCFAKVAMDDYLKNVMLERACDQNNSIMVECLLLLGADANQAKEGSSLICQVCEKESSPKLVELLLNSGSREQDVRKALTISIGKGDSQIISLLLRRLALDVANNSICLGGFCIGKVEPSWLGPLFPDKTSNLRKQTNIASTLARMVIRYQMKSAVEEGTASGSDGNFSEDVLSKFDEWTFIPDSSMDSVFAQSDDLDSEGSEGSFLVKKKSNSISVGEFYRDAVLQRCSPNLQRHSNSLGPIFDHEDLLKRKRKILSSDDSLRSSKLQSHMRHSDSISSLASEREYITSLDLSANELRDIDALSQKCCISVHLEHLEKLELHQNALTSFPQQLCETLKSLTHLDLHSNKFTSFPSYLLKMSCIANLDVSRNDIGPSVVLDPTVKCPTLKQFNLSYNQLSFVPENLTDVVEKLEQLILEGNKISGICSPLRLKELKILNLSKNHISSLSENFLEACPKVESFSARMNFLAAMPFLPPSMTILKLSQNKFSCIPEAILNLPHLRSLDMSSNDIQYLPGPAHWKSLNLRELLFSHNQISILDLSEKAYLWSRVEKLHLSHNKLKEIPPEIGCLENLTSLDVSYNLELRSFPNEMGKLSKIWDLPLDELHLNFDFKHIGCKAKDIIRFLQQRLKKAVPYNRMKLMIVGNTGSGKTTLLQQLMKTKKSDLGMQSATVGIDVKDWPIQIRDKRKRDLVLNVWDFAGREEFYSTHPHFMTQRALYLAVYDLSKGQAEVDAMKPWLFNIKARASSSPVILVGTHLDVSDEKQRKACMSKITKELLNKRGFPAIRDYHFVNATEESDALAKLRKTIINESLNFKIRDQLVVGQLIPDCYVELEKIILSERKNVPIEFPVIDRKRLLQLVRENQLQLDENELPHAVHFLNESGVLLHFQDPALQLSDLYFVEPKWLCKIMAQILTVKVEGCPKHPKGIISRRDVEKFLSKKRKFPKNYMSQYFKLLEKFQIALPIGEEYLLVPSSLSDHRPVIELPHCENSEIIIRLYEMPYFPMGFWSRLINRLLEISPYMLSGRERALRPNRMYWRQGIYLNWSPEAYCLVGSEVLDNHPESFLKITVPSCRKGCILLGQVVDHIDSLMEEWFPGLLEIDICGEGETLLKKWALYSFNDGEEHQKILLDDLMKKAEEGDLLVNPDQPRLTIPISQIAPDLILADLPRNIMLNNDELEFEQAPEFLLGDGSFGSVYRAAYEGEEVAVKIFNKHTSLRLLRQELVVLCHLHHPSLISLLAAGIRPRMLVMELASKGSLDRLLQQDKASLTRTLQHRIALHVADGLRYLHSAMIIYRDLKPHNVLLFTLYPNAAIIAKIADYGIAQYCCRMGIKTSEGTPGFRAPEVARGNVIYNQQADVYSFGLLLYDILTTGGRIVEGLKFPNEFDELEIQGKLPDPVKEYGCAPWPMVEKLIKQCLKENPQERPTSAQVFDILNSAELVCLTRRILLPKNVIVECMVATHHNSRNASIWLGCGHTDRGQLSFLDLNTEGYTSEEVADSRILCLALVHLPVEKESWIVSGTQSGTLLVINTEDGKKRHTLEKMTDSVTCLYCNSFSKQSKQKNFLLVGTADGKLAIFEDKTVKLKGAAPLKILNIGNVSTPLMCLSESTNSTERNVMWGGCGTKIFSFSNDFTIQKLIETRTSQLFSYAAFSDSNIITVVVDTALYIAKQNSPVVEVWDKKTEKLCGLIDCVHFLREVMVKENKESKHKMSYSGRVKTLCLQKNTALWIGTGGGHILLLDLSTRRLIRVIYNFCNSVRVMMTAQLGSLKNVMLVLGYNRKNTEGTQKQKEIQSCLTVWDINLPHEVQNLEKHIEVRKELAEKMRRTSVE

Structure (SMILES)	DC50 [1] [nM]	Dmax [2] [%]	Dmax [5] [%]	DC50 [6] [nM]	also measured
CC1(Oc2ccc3n[nH]c(-c4cc(N5CCC(CN6C[C@H]7C[C@@H]6CN7CC6CCN(c7ccc8c(c7F)CN(C7CCC(=O)NC7=O)C8=O)CC6)CC5)ncn4)c3c2)CC1 (stereo partly drawn) [Compound 226, 3-[4-fluoro-5-(4-{[(1R,4R)-5-[(1-{6-[5-(1-methylcyclopropoxy)-2H-indazol-3-yl]pyrimidin-4-yl}piperidin-4-yl)methyl]-2,5-diazabicyclo[2.2.1]heptan-2-yl]methyl}piperidin-1-yl)-1-oxo-2,3-dihydro-1H-isoindol-2-yl]piperidine-2,6-dione]	< 10	50 to 70	–	–	–
CC1(Oc2ccc3n[nH]c(-c4cc(N5CCC(CO[C@H]6C[C@H](N7CCC(c8ccc9c(c8F)CN(C8CCC(=O)NC8=O)C9=O)CC7)C6)CC5)ncn4)c3c2)CC1 (some centres unmarked) [Compound 292, 3-(4-fluoro-1-oxo-5-{1-[(1r,3r)-3-[(1-{6-[5-(1-methylcyclopropoxy)-2H-indazol-3-yl]pyrimidin-4-yl}piperidin-4-yl)methoxy]cyclobutyl]piperidin-4-yl}-2,3-dihydro-1H-isoindol-2-yl)piperidine-2,6-dione]	–	–	–	–	Dmax [3]: 50 to 70%; DC50 [4]: < 10 nM
COc1c(N2CC3(CCN([C@H]4C[C@H](OC5CCN(c6cc(-c7[nH]nc8ccc(OC9(C)CC9)cc78)ncn6)CC5)C4)CC3)C2)ccc2c1CN(C1CCC(=O)NC1=O)C2=O (some centres unmarked) [Compound 344, 3-(4-methoxy-1-oxo-5-{7-[(1r,3r)-3-[(1-{6-[5-(1-methylcyclopropoxy)-2H-indazol-3-yl]pyrimidin-4-yl}piperidin-4-yl)oxy]cyclobutyl]-2,7-diazaspiro[3.5]nonan-2-yl}-2,3-dihydro-1H-isoindol-2-yl)piperidine-2,6-dione]	–	–	–	–	Dmax [3]: 50 to 70%; DC50 [4]: < 10 nM
COc1c(N2CC3(CCN(CCC4CCN(c5cc(-c6n[nH]c7ccc(OC8(C)CC8)cc67)ncn5)CC4)CC3(F)F)C2)ccc2c1CN(C1CCC(=O)NC1=O)C2=O (centres unmarked) [Compound 341, 3-(5-{5,5-difluoro-7-[2-(1-{6-[5-(1-methylcyclopropoxy)-1H-indazol-3-yl]pyrimidin-4-yl}piperidin-4-yl)ethyl]-2,7-diazaspiro[3.5]nonan-2-yl}-4-methoxy-1-oxo-2,3-dihydro-1H-isoindol-2-yl)piperidine-2,6-dione]	–	–	–	–	Dmax [3]: 50 to 70%; DC50 [4]: < 10 nM
CC1(Oc2ccc3[nH]nc(-c4cc(N5CCC(CN6CCN(CC7CCN(c8ccc9c(c8F)CN(C8CCC(=O)NC8=O)C9=O)CC7)CC6(C)C)CC5)ncn4)c3c2)CC1 (centres unmarked) [Compound 224, 3-[5-[4-[[3,3-dimethyl-4-[[1-[6-[5-(1-methylcyclopropoxy)-1H-indazol-3-yl]pyrimidin-4-yl]-4-piperidyl]methyl]piperazin-1-yl]methyl]-1-piperidyl]-4-fluoro-1-oxo-isoindolin-2-yl]piperidine-2,6-dione]	< 10	50 to 70	–	–	–
CC1(Oc2ccc3n[nH]c(-c4cc(N5CCN(C[C@H]6CC[C@H](OC7CCN(c8cc9c(cc8F)C(=O)N(C8CCC(=O)NC8=O)C9)CC7)CC6)CC5)ncn4)c3c2)CC1 (some centres unmarked) [Compound 235, 3-[6-fluoro-5-[4-[4-[[4-[6-[5-(1-methylcyclopropoxy)-2H-indazol-3-yl]pyrimidin-4-yl]piperazin-1-yl]methyl]cyclohexoxy]-1-piperidyl]-1-oxo-isoindolin-2-yl]piperidine-2,6-dione]	< 10	50 to 70	–	–	–
CC1(Oc2ccc3[nH]nc(-c4cc(N5CCC(O[C@H]6CC[C@H](CN7CCN(c8ccc9c(c8F)CN(C8CCC(=O)NC8=O)C9=O)C(C)(C)C7)CC6)CC5)ncn4)c3c2)CC1 (some centres unmarked) [Compound 378, 3-[5-(2,2-dimethyl-4-{[(1r,4r)-4-[(1-{6-[5-(1-methylcyclopropoxy)-1H-indazol-3-yl]pyrimidin-4-yl}piperidin-4-yl)oxy]cyclohexyl]methyl}piperazin-1-yl)-4-fluoro-1-oxo-2,3-dihydro-1H-isoindol-2-yl]piperidine-2,6-dione]	< 10	50 to 70	–	–	–
COc1cc2c(cc1N1CCC(CN3CCC(F)(CN4CCN(c5cc(-c6[nH]nc7ccc(OC8(C)CC8)cc67)ncn5)CC4)CC3)CC1)CN(C1CCC(=O)NC1=O)C2=O (centres unmarked) [Compound 198, 3-[5-[4-[[4-fluoro-4-[[4-[6-[5-(1-methylcyclopropoxy)-2H-indazol-3-yl]pyrimidin-4-yl]piperazin-1-yl]methyl]-1-piperidyl]methyl]-1-piperidyl]-6-methoxy-1-oxo-isoindolin-2-yl]piperidine-2,6-dione]	–	–	≥ 70	< 10	–
COc1cc2c(cc1N1CCC(CN3CCN(CC4CCN(c5cc(-c6n[nH]c7ccc(OC8(C)CC8)cc67)ncn5)CC4)CC3)CC1)CN(C1CCC(=O)NC1=O)C2=O (centres unmarked) [Compound 194, 3-[6-methoxy-5-[4-[[4-[[1-[6-[5-(1-methylcyclopropoxy)-1H-indazol-3-yl]pyrimidin-4-yl]-4-piperidyl]methyl]piperazin-1-yl]methyl]-1-piperidyl]-1-oxo-isoindolin-2-yl]piperidine-2,6-dione]	–	–	≥ 70	< 10	–
COc1c(N2CCN(C[C@H]3CC[C@H](OC4CCN(c5cc(-c6[nH]nc7ccc(OC8(C)CC8)cc67)ncn5)CC4)CC3)CC2)ccc2c1CN(C1CCC(=O)NC1=O)C2=O (some centres unmarked) [Compound 252, 3-[4-methoxy-1-oxo-5-(4-{[(1r,4r)-4-[(1-{6-[5-(1-methylcyclopropoxy)-2H-indazol-3-yl]pyrimidin-4-yl}piperidin-4-yl)oxy]cyclohexyl]methyl}piperazin-1-yl)-2,3-dihydro-1H-isoindol-2-yl]piperidine-2,6-dione]	< 10	50 to 70	–	–	–
COc1c(N2CCC(CN3CCN(CC4CCN(c5cc(-c6n[nH]c7cc(F)c(OC8(C)CC8)cc67)ncn5)CC4)C(C)(C)C3)CC2)ccc2c1CN(C1CCC(=O)NC1=O)C2=O (centres unmarked) [Compound 359, 3-{5-[4-({4-[(1-{6-[6-fluoro-5-(1-methylcyclopropoxy)-1H-indazol-3-yl]pyrimidin-4-yl}piperidin-4-yl)methyl]-3,3-dimethylpiperazin-1-yl}methyl)piperidin-1-yl]-4-methoxy-1-oxo-2,3-dihydro-1H-isoindol-2-yl}piperidine-2,6-dione]	< 10	50 to 70	–	–	–
CC1(Oc2ccc3[nH]nc(-c4cc(N5CCC(CN6CCC(F)(CN7CCN(c8ccc9c(c8F)CN(C8CCC(=O)NC8=O)C9=O)CC7)CC6)CC5)ncn4)c3c2)CC1 (centres unmarked) [Compound 190, 3-[4-fluoro-5-[4-[[4-fluoro-1-[[1-[6-[5-(1-methylcyclopropoxy)-1H-indazol-3-yl]pyrimidin-4-yl]-4-piperidyl]methyl]-4-piperidyl]methyl]piperazin-1-yl]-1-oxo-isoindolin-2-yl]piperidine-2,6-dione]	–	–	≥ 70	< 10	–
CC1(Oc2cc3c(-c4cc(N5CCN(CC6(F)CCN(CC7CCN(c8cc9c(cc8F)C(=O)N(C8CCC(=O)NC8=O)C9)CC7)CC6)CC5)ncn4)[nH]nc3cc2F)CC1 (centres unmarked) [Compound 195, 3-[6-fluoro-5-[4-[[4-fluoro-4-[[4-[6-[6-fluoro-5-(1-methylcyclopropoxy)-2H-indazol-3-yl]pyrimidin-4-yl]piperazin-1-yl]methyl]-1-piperidyl]methyl]-1-piperidyl]-1-oxo-isoindolin-2-yl]piperidine-2,6-dione]	–	–	≥ 70	< 10	–
